Patent US20150044201A1, “CYCLON EXPRESSION FOR THE IDENTIFICATION AND CONTROL OF CANCER CELLS” (UNIVERSITE JOSEPH FOURIER - GRENOBLE, priority 2012, published 2015)
“Also recorded” adds a separate entry of the source.

What was measured:
[1] = test system: Cyclon; settings: K562 leukemic cells treated with Imatinib, public data GDS3043; cited from earlier work
[2] = test system: Raji cells; assay: Evaluation of Rituximab sensitivity, direct apoptosis assay; format: cell-based; settings: sh Cyclon vs sh Ctrl cell lines (Raji, B593, SUDHL4); 24 h, 10 μg/ml Rituximab
Description: (§1) Non-targeting or CYCLON targeting short hairpin (sh) RNA sequences were designed using the DSIR algorithm (http://biodev.cea.fr/DSIR/DSIR.html). Sequences, provided in Table 1, were cloned into the pLKO-1 lentiviral vector (Addgene) and packaged as described (Levy et al., 2010) or purchased from Santa Cruz. Cells were transduced with lentiviral particles at a MOI of 10. Stable cell lines were established under puromycin selection (1 μg/ml).
(§2) Cells were treated with 1 to 10 μg/ml Rituximab (Roche) or isotype control (Herceptin, Roche) for 24 h for direct apoptosis assays and for 1 h in presence of 20% human serum as a source of complement for CDC assays. Cell viability was evaluated by AnnexinV/IP (Beckman Coulter) or IP staining and flow cytometry analysis (LSIIR, BD). Specific cell death was calculated as (% of cell death with Rituximab−% cell death with Herceptin)/(1−% cell death with Herceptin), n=8 for each cell line.

[3] = test system: Raji cells; assay: Evaluation of Rituximab sensitivity, complement dependent cytotoxicity (CDC) assay; format: cell-based; settings: sh Cyclon vs sh Ctrl cell lines (Raji, B593, SUDHL4); 1 h, 1 μg/ml Rituximab, 20% human serum
Description: as §1, §2

[4] = test system: Raji cells; assay: Xenotransplantation assay, Raji shCtrl / shCyclon tumours treated with Rituximab; format: in vivo, nude mice; settings: subcutaneous, daily intraperitoneal 200 μg Rituximab
Description: 3·10^6 Raji cells were injected subcutaneously into the flank of 6 to 8 week-old nude mice as described. Four mice were injected, each of them with shCtrl and shCyclon Raji cells into the right and left flanks respectively. When tumours were palpable (˜[…]), mice were given daily intraperitoneal injections of 200 μg Rituximab. Tumour volume was measured every 2 days using the formula I^2×L×0.52 (n=4 for each group).

Molecule	Cyclon expression level [1]	sensitivity of cancer cells through direct apoptosis (specific cell death) [2]	sensitivity of cancer cells through complement dependent cytotoxicity (CDC specific cell death) [3]	tumour regression, day of treatment ([4]; Cyclon-depleted tumours (Raji shCyclon))	tumour regression, day of treatment ([4]; control tumours (Raji shCtrl))
Cc1ccc(NC(=O)c2ccc(CN3CCN(C)CC3)cc2)cc1Nc1nccc(-c2cccnc2)n1 [Imatinib]	down-regulation of Cyclon; also recorded: reduce Cyclon expression levels				
Rituximab		increased sensitivity	increased sensitivity	≤ 4 days	14 days
